The data set can be described thus: Evaluation of stability in liver microsome. As to conditions: mouse liver microsome, 1 μM, 37° C. for 30 minutes.
Experimental: Solutions of the test compounds in DMSO/acetonitrile (the final concentration of each test compound was 1 μM, the final concentration of DMSO was 0.01%, and the final concentration of acetonitrile was 1%) were individually added to a liver microsome mixture solution (mouse liver microsome with a final concentration of 0.25 mg/mL, a potassium phosphate buffer with a final concentration of 100 mM, and magnesium chloride with a final concentration of 3 mM), and each mixture was pre-incubated at 37° C. for 5 minutes. […] After incubation at 37° C. for 30 minutes, a double amount of ethanol was added thereto to terminate the reaction, thereby obtaining post-reaction samples. A double amount of ethanol was added to each of the remaining mixture solutions, and a NADPH-generating system was further added thereto, thereby obtaining pre-reaction samples. The pre-reaction samples and post-reaction samples were centrifuged at 2000×g, and their supernatant was filtered through a glass filter. Each filtrate was then introduced into LC-MS/MS, and MS/MS peaks of the test compounds were detected. From the ratio of the post-reaction MS/MS peak to the pre-reaction MS/MS peak of the test compounds, the percentage of the remaining test compounds (remaining %) was calculated.
In the case of `COCc1ccc(NC(=O)c2c(-c3ccc(NC(C)=O)nc3)n(C3(C)CC3)c3ncnc(N)c23)cc1` [Example 147, 6-(6-acetamidopyridin-3-yl)-4-amino-N-(4-(methoxymethyl)phenyl)-7-(1-methylcyclopropyl)-7H-pyrrolo[2,3-d]pyrimidine-5-carboxamide], the “Remaining (%)” value was determined as 68%.
As for `COCc1ccc(NC(=O)c2c(C#CC3CCOCC3)n(C3(C)CC3)c3ncnc(N)c23)cc1` [Example 87, 4-amino-N-[4-(methoxymethyl)phenyl]-7-(1-methylcyclopropyl)-6-((tetrahydro-2H-pyran-4-yl)ethynyl)-7H-pyrrolo[2,3-d]pyrimidine-5-carboxamide], the figure is 63%; as for `COCc1ccc(NC(=O)c2c(C#Cc3ccc(Cl)nc3)n(C3(C)CC3)c3ncnc(N)c23)cc1` [Example 120, 4-amino-6-((6-chloropyridin-3-yl)ethynyl)-N-(4-(methoxymethyl)phenyl)-7-(1-methylcyclopropyl)-7H-pyrrolo[2,3-d]pyrimidine-5-carboxamide], 72%; as for `COCc1ccc(NC(=O)c2c(-c3ccc(O)cc3)n(C3(C)CC3)c3ncnc(N)c23)cc1` [Example 148, 4-amino-6-(4-hydroxyphenyl)-N-(4-(methoxymethyl)phenyl)-7-(1-methylcyclopropyl)-7H-pyrrolo[2,3-d]pyrimidine-5-carboxamide], 61%.
Under `COCc1ccc(NC(=O)c2c(C#CC3(O)CCOC3)n(C3(C)CC3)c3ncnc(N)c23)cc1` (stereo not drawn) [Example 177, 4-amino-6-((3-hydroxytetrahydrofuran-3-yl)ethynyl)-N-(4-(methoxymethyl)phenyl)-7-(1-methylcyclopropyl)-7H-pyrrolo[2,3-d]pyrimidine-5-carboxamide] stands 72%.
In the case of `COCc1ccc(NC(=O)c2c(C#Cc3cncc(C#N)c3)n(C3(C)CC3)c3ncnc(N)c23)cc1` [Example 195, 4-amino-6-((5-cyanopyridin-3-yl)ethynyl)-N-(4-(methoxymethyl)phenyl)-7-(1-methylcyclopropyl)-7H-pyrrolo[2,3-d]pyrimidine-5-carboxamide], the “Remaining (%)” value worked out at 70%.
Under `COCc1ccc(NC(=O)c2c(C#CCC3(O)CCOCC3)n(C3(C)CC3)c3ncnc(N)c23)cc1` [Example 143, 4-amino-6-(3-(4-hydroxytetrahydro-2H-pyran-4-yl)prop-1-yn-1-yl)-N-(4-(methoxymethyl)phenyl)-7-(1-methylcyclopropyl)-7H-pyrrolo[2,3-d]pyrimidine-5-carboxamide] stands 68%; under `COCc1ccc(NC(=O)c2c(C)n(C(C)(C)C)c3ncnc(N)c23)cc1` [Example 60, 4-amino-7-(tert-butyl)-N-(4-(methoxymethyl)phenyl)-6-methyl-7H-pyrrolo[2,3-d]pyrimidine-5-carboxamide], 81%.
As for `COCc1ccc(NC(=O)c2c(C#Cc3ccccn3)n(C3(C)CC3)c3ncnc(N)c23)cc1` [Example 172, 4-amino-N-[4-(methoxymethyl)phenyl]-7-(1-methylcyclopropyl)-6-(pyridin-2-ylethynyl)-7H-pyrrolo[2,3-d]pyrimidine-5-carboxamide], the figure is 61%; as for `COCc1ccc(NC(=O)c2c(C#Cc3c[nH]c4ccccc34)n(C3(C)CC3)c3ncnc(N)c23)cc1` [Example 121, 6-((1H-indol-3-yl)ethynyl)-4-amino-N-(4-(methoxymethyl)phenyl)-7-(1-methylcyclopropyl)-7H-pyrrolo[2,3-d]pyrimidine-5-carboxamide], 74%; as for `COCc1ccc(NC(=O)c2cn(C3(C)CC3)c3ncnc(N)c23)cc1F` [Example 48, 4-amino-N-(3-fluoro-4-(methoxymethyl)phenyl)-7-(1-methylcyclopropyl)-7H-pyrrolo[2,3-d]pyrimidine-5-carboxamide], 58%.
Under `COCc1ccc(NC(=O)c2c(C#Cc3cnc4ccoc4c3)n(C3(C)CC3)c3ncnc(N)c23)cc1` [Example 159, 4-amino-6-(furo[3,2-b]pyridin-6-ylethynyl)-N-(4-(methoxymethyl)phenyl)-7-(1-methylcyclopropyl)-7H-pyrrolo[2,3-d]pyrimidine-5-carboxamide] stands 78%; under `COCc1ccc(NC(=O)c2c(C#Cc3ccccc3OC)n(C3(C)CC3)c3ncnc(N)c23)cc1` [Example 113, 4-amino-N-(4-(methoxymethyl)phenyl)-6-((2-methoxyphenyl)ethynyl)-7-(1-methylcyclopropyl)-7H-pyrrolo[2,3-d]pyrimidine-5-carboxamide], 79%; under `COCc1ccc(NC(=O)c2c(C#Cc3cnc4cccnn34)n(C3(C)CC3)c3ncnc(N)c23)cc1` [Example 91, 4-amino-6-(imidazo[1,2-b]pyridazin-3-ylethynyl)-N-[4-(methoxymethyl)phenyl]-7-(1-methylcyclopropyl)-7H-pyrrolo[2,3-d]pyrimidine-5-carboxamide], 65%.
Consider `COCc1ccc(NC(=O)c2c(C(C)O)n(C3(C)CC3)c3ncnc(N)c23)cc1` (stereo not drawn) [Example 204, 4-amino-6-(1-hydroxyethyl)-N-(4-(methoxymethyl)phenyl)-7-(1-methylcyclopropyl)-7H-pyrrolo[2,3-d]pyrimidine-5-carboxamide], for which the “Remaining (%)” value amounted to 83%.
As for `COCc1ccc(NC(=O)c2c(C#Cc3cncc(F)c3)n(C3(C)CC3)c3ncnc(N)c23)cc1` [Example 175, 4-amino-6-((5-fluoropyridin-3-yl)ethynyl)-N-(4-(methoxymethyl)phenyl)-7-(1-methylcyclopropyl)-7H-pyrrolo[2,3-d]pyrimidine-5-carboxamide], the figure is 66%; as for `COCc1ccc(NC(=O)c2c(C#CC(C)(C)N)n(C3(C)CC3)c3ncnc(N)c23)cc1` [Example 134, 4-amino-6-(3-amino-3-methylbut-1-yn-1-yl)-N-(4-(methoxymethyl)phenyl)-7-(1-methylcyclopropyl)-7H-pyrrolo[2,3-d]pyrimidine-5-carboxamide], 79%.
For the compound `COCc1ccc(NC(=O)c2cn(C3(CF)CC3)c3ncnc(N)c23)cc1` [Example 45, 4-amino-7-(1-(fluoromethyl)cyclopropyl)-N-(4-(methoxymethyl)phenyl)-7H-pyrrolo[2,3-d]pyrimidine-5-carboxamide], the “Remaining (%)” value is recorded as 66%.
As for `COCc1ccc(NC(=O)c2c(C#CCC3CCOCC3)n(C3(C)CC3)c3ncnc(N)c23)cc1` [Example 152, 4-amino-N-(4-(methoxymethyl)phenyl)-7-(1-methylcyclopropyl)-6-(3-(tetrahydro-2H-pyran-4-yl)prop-1-yn-1-yl)-7H-pyrrolo[2,3-d]pyrimidine-5-carboxamide], the figure is 57%; as for `COCc1ccc(NC(=O)c2c(C#CCN3CCCCC3)n(C3(C)CC3)c3ncnc(N)c23)cc1` [Example 105, 4-amino-N-[4-(methoxymethyl)phenyl]-7-(1-methylcyclopropyl)-6-(3-(piperidin-1-yl)prop-1-yn-1-yl)-7H-pyrrolo[2,3-d]pyrimidine-5-carboxamide], 52%.
Take `COCc1ccc(NC(=O)c2c(C#Cc3cncs3)n(C3(C)CC3)c3ncnc(N)c23)cc1` [Example 193, 4-amino-N-[4-(methoxymethyl)phenyl]-7-(1-methylcyclopropyl)-6-(thiazol-5-ylethynyl)-7H-pyrrolo[2,3-d]pyrimidine-5-carboxamide]: the “Remaining (%)” value is listed as 51%.

Values taken from patent US11046696B2, “Fused pyrimidine compound or salt thereof” (TAIHO PHARMACEUTICAL CO., LTD., priority 2016, dated 2021).
